According to patent publication US9040545B2, “Heterocyclyl pyrazolopyrimidine analogues as selective JAK inhibitors” (Cellzome Limited, priority 2010, dated 2015):

Experiments:
[1] = molecular target: T1, JAK2 (Homo sapiens, UniProt O60674); test: Kinobeads assay, JAK2; format: binding; settings: mixed Molt4/Ramos lysate, read-out: Inhibition values (IC50) JAK2
T1 construct: endogenous in cells; host or cells: mixed Molt4/Ramos lysate (1:2)
Procedure, shortened: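 IC50 values come from dose-response curves of JAK2/JAK3 captured on immobilized aminopyrido-pyrimidine beads, quantified by antibody dot blot with infrared read-out. Compounds (1:3 series, 9 steps, from 5 mM DMSO stock) competed for 3 h in the cold with mixed Molt4/Ramos lysate (1:2, 10 mg/mL protein).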

[2] = molecular target: T2, Aurora B (Homo sapiens, UniProt Q96GD4); test: Kinobeads assay, Aurora B; format: binding; settings: for IC50: lysate of pervanadate-treated Jurkat cells, read-out: Inhibition values (IC50) Aur B
T2 construct: cell lysates from Jurkat cells (ATCC TIB-152) used; endogenous in cells; host or cells: Jurkat cells (ATCC TIB-152), treated with pervanadate
T2 sequence (Q96GD4 whole entry): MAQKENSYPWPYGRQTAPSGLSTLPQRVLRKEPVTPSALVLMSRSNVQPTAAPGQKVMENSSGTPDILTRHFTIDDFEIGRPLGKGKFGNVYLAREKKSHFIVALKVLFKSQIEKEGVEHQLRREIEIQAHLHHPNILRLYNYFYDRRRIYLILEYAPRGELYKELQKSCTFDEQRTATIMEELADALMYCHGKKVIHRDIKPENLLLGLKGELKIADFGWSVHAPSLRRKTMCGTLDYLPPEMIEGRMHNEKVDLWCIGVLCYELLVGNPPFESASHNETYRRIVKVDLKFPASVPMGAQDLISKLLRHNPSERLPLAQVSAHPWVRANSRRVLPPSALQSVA

T1 sequence (O60674 whole entry): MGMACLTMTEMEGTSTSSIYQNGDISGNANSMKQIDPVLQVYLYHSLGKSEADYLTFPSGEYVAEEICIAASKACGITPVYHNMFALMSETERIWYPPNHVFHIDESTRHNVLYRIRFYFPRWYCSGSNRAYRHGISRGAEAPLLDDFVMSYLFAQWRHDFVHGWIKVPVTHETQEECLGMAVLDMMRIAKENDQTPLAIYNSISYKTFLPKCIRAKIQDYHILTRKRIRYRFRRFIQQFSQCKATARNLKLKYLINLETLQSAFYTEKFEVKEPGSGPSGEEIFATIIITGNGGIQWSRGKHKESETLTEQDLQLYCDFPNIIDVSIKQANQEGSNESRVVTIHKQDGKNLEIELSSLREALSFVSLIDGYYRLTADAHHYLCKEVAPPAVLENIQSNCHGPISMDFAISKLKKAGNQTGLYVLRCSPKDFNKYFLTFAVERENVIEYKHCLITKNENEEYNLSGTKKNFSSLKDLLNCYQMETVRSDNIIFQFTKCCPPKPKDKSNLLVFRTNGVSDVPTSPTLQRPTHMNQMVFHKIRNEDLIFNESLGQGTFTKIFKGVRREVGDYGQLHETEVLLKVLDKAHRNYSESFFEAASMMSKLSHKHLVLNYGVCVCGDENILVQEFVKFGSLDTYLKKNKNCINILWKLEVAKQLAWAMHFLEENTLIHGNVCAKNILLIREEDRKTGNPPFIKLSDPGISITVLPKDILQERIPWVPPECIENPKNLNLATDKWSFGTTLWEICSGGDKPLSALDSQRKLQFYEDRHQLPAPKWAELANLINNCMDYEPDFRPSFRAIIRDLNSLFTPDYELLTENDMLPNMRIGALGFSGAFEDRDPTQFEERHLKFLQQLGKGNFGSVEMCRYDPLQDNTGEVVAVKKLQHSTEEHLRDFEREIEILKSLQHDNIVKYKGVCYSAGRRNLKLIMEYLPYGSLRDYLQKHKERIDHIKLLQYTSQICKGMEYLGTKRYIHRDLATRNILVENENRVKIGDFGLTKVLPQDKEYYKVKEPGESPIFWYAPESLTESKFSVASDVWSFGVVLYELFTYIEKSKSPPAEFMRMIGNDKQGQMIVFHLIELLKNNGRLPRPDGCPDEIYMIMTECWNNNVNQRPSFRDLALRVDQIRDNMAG

Row | Structure (SMILES) | IC50 [1] | JAK3/AurB Fold Selectivity [2] | IC50 [2]
1 | Cn1cc(Nc2ncc3cnn(Cc4cccc(-c5cn[nH]c5)c4)c3n2)cn1 [Example 118, 1-(3-(1H-pyrazol-4-yl)benzyl)-N-(1-methyl-1H-pyrazol-4-yl)-1H-pyrazolo[3,4-d]pyrimidin-6-amine] | ≥ 10 µM | 10-50 Fold | 1 to 10 µM
2 | CCCn1cc(-c2cccc(Cn3ncc4cnc(Nc5cnn(C)c5)nc43)c2)cn1 [Example 119, N-(1-methyl-1H-pyrazol-4-yl)-1-(3-(1-propyl-1H-pyrazol-4-yl)benzyl)-1H-pyrazolo[3,4-d]pyrimidin-6-amine] | ≥ 10 µM | >50 Fold | 1 to 10 µM
3 | Cn1cc(Nc2ncc3cnn(Cc4cccc(-c5cnn(CC(N)=O)c5)c4)c3n2)cn1 [Example 120, 2-(4-(3-((6-((1-methyl-1H-pyrazol-4-yl)amino)-1H-pyrazolo[3,4-d]pyrimidin-1-yl)methyl)phenyl)-1H-pyrazol-1-yl)acetamide] | 1 to 10 µM | >50 Fold | 1 to 10 µM
4 | Cn1cc(Nc2ncc3cnn(Cc4cccc(-c5cnn(CCO)c5)c4)c3n2)cn1 [Example 121, 2-(4-(3-((6-((1-methyl-1H-pyrazol-4-yl)amino)-1H-pyrazolo[3,4-d]pyrimidin-1-yl)methyl)phenyl)-1H-pyrazol-1-yl)ethanol] | 1 to 10 µM | 10-50 Fold | 1 to 10 µM
5 | Cn1cc(-c2cccc(Cn3ncc4cnc(Nc5cnn(CCO)c5)nc43)c2)cn1 [Example 122, 2-(4-((1-(3-(1-methyl-1H-pyrazol-4-yl)benzyl)-1H-pyrazolo[3,4-d]pyrimidin-6-yl)amino)-1H-pyrazol-1-yl)ethanol] | 1 to 10 µM | >50 Fold | 0.1 to 1 µM
6 | Cn1cc(Nc2ncc3cnn(Cc4cccc(-c5cnn(C)c5)c4F)c3n2)cn1 [Example 123, 1-(2-fluoro-3-(1-methyl-1H-pyrazol-4-yl)benzyl)-N-(1-methyl-1H-pyrazol-4-yl)-1H-pyrazolo[3,4-d]pyrimidin-6-amine] | 1 to 10 µM | >50 Fold | 1 to 10 µM
7 | Cn1cc(-c2cccc(Cn3ncc4cnc(Nc5cnn(CCO)c5)nc43)c2F)cn1 [Example 124, 2-(4-((1-(2-fluoro-3-(1-methyl-1H-pyrazol-4-yl)benzyl)-1H-pyrazolo[3,4-d]pyrimidin-6-yl)amino)-1H-pyrazol-1-yl)ethanol] | 1 to 10 µM | 10-50 Fold | 0.1 to 1 µM
8 | Cn1cc(Nc2ncc3cnn(Cc4cc(F)cc(-c5cnn(C)c5)c4)c3n2)cn1 [Example 125, 1-(3-fluoro-5-(1-methyl-1H-pyrazol-4-yl)benzyl)-N-(1-methyl-1H-pyrazol-4-yl)-1H-pyrazolo[3,4-d]pyrimidin-6-amine] | 0.1 to 1 µM | >50 Fold | 1 to 10 µM
9 | Cn1cc(Nc2ncc3cnn(Cc4cc(-c5cnn(C)c5)cc(F)c4F)c3n2)cn1 [Example 126, 1-(2,3-difluoro-5-(1-methyl-1H-pyrazol-4-yl)benzyl)-N-(1-methyl-1H-pyrazol-4-yl)-1H-pyrazolo[3,4-d]pyrimidin-6-amine] | ≥ 10 µM | >50 Fold | ≥ 10 µM
10 | Cn1cc(-c2cc(F)c(F)c(Cn3ncc4cnc(Nc5cnn(CCO)c5)nc43)c2)cn1 [Example 127, 2-(4-((1-(2,3-difluoro-5-(1-methyl-1H-pyrazol-4-yl)benzyl)-1H-pyrazolo[3,4-d]pyrimidin-6-yl)amino)-1H-pyrazol-1-yl)ethanol] | 1 to 10 µM | 10-50 Fold | 0.1 to 1 µM
